Here are results for two molecules from patent publication US20070082937A1, “Anti cancer combinations comprising a cox-2 inhibitor” (Cancer Research Technology Limited, priority 2003, published 2007).

One assay deals with colon 38 tumours. The experiment in a line: Tumour growth delay assay. In kind it is in vivo, mice. The procedure: C57B1/6 mice from the Animal Resource Unit, University of Auckland, were bred and housed under conditions of constant temperature and humidity, with sterile bedding and food, according to institutional ethical guidelines. All mice were aged between 8 and 12 weeks.
DMXAA was synthesized as the sodium salt (Rewcastle et al., (1990) Journal of National Cancer Institute 82:528-529). DMXAA sodium salt was dissolved in neutral aqueous solution and 25 mg/kg, in a volume of 0.1 ml per 10 g body weight, was injected intraperitoneally (i.p.) into mice.
Vioxx™ (Sigma) was made up in neutral aqueous solution and 100 or 150 mg/kg, in a volume of 0.1 ml per 10 g body weight, was injected intraperitoneally (i.p.) into mice. […]
Colon 38 tumour fragments (˜1 mm^3) were implanted subcutaneously (s.c.) in anaesthetized (sodium pentobarbitone, 90 mg/kg) mice. […] Tumour-bearing mice were treated with drugs according to the administration schedule described before, and the tumours measured using calipers, at three day intervals thereafter. Tumour volumes were calculated as 0.52a^2b, where a and b are the minor and major axes of the tumour, respectively. The arithmetic means were calculated for each time point, counting cured tumours as zero volume. The growth delay was determined as the difference in the number of days required for the control versus treated tumours to increase four times in volume. […]

A further assay relates to tumour blood flow. The settings on record: human tumours, well-tolerated doses, dynamic MRI; cited from earlier work.

Regarding `Cc1ccc2c(=O)c3cccc(CC(=O)O)c3oc2c1C` [DMXAA, 5,6-dimethylxanthenone-4-acetic acid], the mice cured entry in the assay with colon 38 tumours (DMXAA alone 25 mg/kg i.p., colon 38 tumours s.c. in mice, 6 mice) was “None and no cure”. In the assay on tumour blood flow, the tumour blood flow result is “significant reduction”.

For the molecule `CS(=O)(=O)c1ccc(C2=C(c3ccccc3)C(=O)OC2)cc1` [Vioxx™, rofecoxib, reference compound], the “effect on the growth of colon 38 tumours” value in the assay with colon 38 tumours (Vioxx alone 150 mg/kg i.p., colon 38 tumours s.c. in C57Bl/6 mice) was “no significant effect”.
